From article PMC9977845 (2023) come the findings set out here.

Molecules are shown by their SMILES.

The subject of one assay is D1 (DNA, duplex) CCCGGG. In words: 1H NMR. The following applies: Na+ 10 mM (NaCl); 2.5 mM cacodylate pH 5.0; intercalation at CG/CG.
The subject of assay [1] is D4 (DNA, duplex) GGGTACCC
In words: 1H NMR. The following applies: Na+ 10 mM (NaCl), 2.5 mM cacodylate pH 5.0.

The test system of assay [2] is D7 (DNA, duplex) GTACGTAC
Nature of the assay: 1H NMR. To be noted: Na+ 10 mM (NaCl); 2.5 mM cacodylate pH 5.0; intercalation at TA/TA.

The subject of assay [3] is D8 (DNA, duplex) CTAGCTAG
In words: 1H NMR. The following applies: Na+ 10 mM (NaCl); 2.5 mM cacodylate pH 5.0; intercalation at TA/TA.

In assay [4] the test system is B3; D2; d(CGATATCG)2 (DNA, duplex) CGATATCG
Nature of the assay: 2D NMR (NOESY) and restrained MD structure. The following applies: Na+ 10 mM (NaCl); 2.5 mM cacodylate pH 5.0; 5 °C; intercalation at TA/TA.

The subject of assay [5] is D3; d(CCCTAGGG)2 (DNA, duplex) CCCTAGGG
Nature of the assay: 2D NMR (NOESY) and restrained MD structure. The following applies: Na+ 10 mM (NaCl); 2.5 mM cacodylate pH 5.0; 5 °C; intercalation at TA/TA.

Assay [6] concerns B1; d(CGGTACCG)2 (DNA, duplex) CGGTACCG
Nature of the assay: UV-VIS titration, chemometric (PCA) Scatchard analysis. To be noted: Na+ 10 mM (NaCl); 2.5 mM cacodylate pH 5.0; 0.01 mM ligand; microscopic constant.

For assay [7], the system named is B2; d(CGCTAGCG)2 (DNA, duplex) CGCTAGCG
Described as above. To be noted: Na+ 10 mM (NaCl); 2.5 mM cacodylate pH 5.0; 0.01 mM ligand; microscopic constant.

For assay [8], the system named is B3; D2; d(CGATATCG)2 (DNA, duplex) CGATATCG
Described as above. To be noted: Na+ 10 mM (NaCl); 2.5 mM cacodylate pH 5.0; 0.01 mM ligand; microscopic constant.

Assay [9] has the same test system. Nature of the assay: 1H NMR titration. To be noted: Na+ 10 mM (NaCl), 2.5 mM cacodylate pH 5.0, unspecific.
The subject of assay [10] is B2; d(CGCTAGCG)2 (DNA, duplex) CGCTAGCG
In words: 2D NMR (NOESY) and restrained MD structure. To be noted: Na+ 10 mM (NaCl); 2.5 mM cacodylate pH 5.0; 5 °C; intercalation at TA/TA.

The subject of assay [11] is B4; d(CGTTAACG)2 (DNA, duplex) CGTTAACG
In words: UV-VIS titration, chemometric (PCA) Scatchard analysis. To be noted: Na+ 10 mM (NaCl); 2.5 mM cacodylate pH 5.0; 0.01 mM ligand; microscopic constant.

The mark [12] stands for this setting: unspecific, no intercalation site, duplex:ligand 1:1.5.

As for `CCN(CC)CCNc1ccc2ncn3c4ccc(O)cc4c(=O)c1c23`, the binding entry in the assay on D1 (DNA, duplex) CCCGGG was “yes”; in assay [1] (intercalation at TA/TA), “yes”; in assay [2], “yes”; in assay [3] it was “yes”; in assay [4], “yes”; in assay [5], “yes”. For the same compound, the Dissociation constant in assay [6] worked out at 0.524 µM; in [7], 0.260 µM; in assay [8], 0.156 µM.

Turning to `CN(C)CCCNc1c2ccccc2nc2cccc([N+](=O)[O-])c12`, the binding entry is reported as “weak” in [1] (setting [12]) and “weak” in assay [9] (presumably minor groove at centre, no defined intercalation).

With `CN(C)CCCNc1ccc2nnn3c4ccc(O)cc4c(=O)c1c23`, the binding entry in assay [10] was “yes”. For the same compound, the Dissociation constant was 0.145 µM in [6], 0.227 µM in assay [7], 0.608 µM in assay [8] and 0.248 µM in [11].

As for `Cc1ccc([N+](=O)[O-])c2c(NCCO)c3ccccc3nc12`, the binding entry in assay [1] (setting [12]) and in [9] (weaker than C-283) was “weak” throughout.
